The source of these data is patent US20250129021A1, “SMALL MOLECULE PROTEIN SYNTHESIS MODULATORS” (Interdict Bio, Inc., priority 2023, published 2025).

Type in all cases: biochemical
What all share (conditions): HeLa S3 lysate, sfGFP/mCherry ratio, 2 hrs at 30° C.

One test deals with ALK. Nature of the test: In vitro transcription-translation (IVTT) assay, ALK reporter. The gist of the method: (§1)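 Reporter: mCherry, P2A, then 3×FLAG-target peptide-sfGFP fusion, IRES-initiated; HeLa S3 lysate IVTT; cpd dilutions 30 μM−0.1 μM half-log in 100% DMSO (dilution-plate conc); DNA added last; 2 h, 30° C; PBS quench.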
Another test concerns CCND1. Nature of the test: In vitro transcription-translation (IVTT) assay, CCND1 reporter. The gist of the method: as §1
For the next test, the system named is MYC. Nature of the test: In vitro transcription-translation (IVTT) assay, MYC reporter. A digest of the protocol: as §1
The next test has as its system KRAS G12D. As to the kind of experiment: In vitro transcription-translation (IVTT) assay, KRAS G12D reporter. A digest of the protocol: as §1
The next test deals with MCL-1. As to the kind of experiment: In vitro transcription-translation (IVTT) assay, MCL-1 reporter. A digest of the protocol:
as §1

On to `C#CCNC(=O)O[C@@H]1[C@@H](O)CN[C@@H]1Cc1ccc(OC)cc1` [V0074, (2R,3S,4S)-4-hydroxy-2-[(4-methoxyphenyl)methyl]pyrrolidin-3-yl N-(prop-2-yn-1-yl)carbamate], for which the IC50 in the test on ALK, with CCND1, with MYC and in the test on KRAS G12D was under 10 µM in each case.
Regarding `COc1ccc(C[C@H]2NC[C@H](O)[C@H]2OC(=O)NCCc2nc3ccc(Cl)cc3[nH]2)cc1` [V187821, (2R,3S,4S)-4-hydroxy-2-[(4-methoxyphenyl)methyl]pyrrolidin-3-yl N-[2-(5-chloro-3H-1,3-benzodiazol-2-yl)ethyl]carbamate], the IC50 (in general, the point on the concentration scale where inhibition reaches its midpoint) in the test with ALK is under 10 µM; with CCND1 it was over 30 µM; in the test on MYC it was 10 to 20 µM; with KRAS G12D, over 30 µM.
With `COc1ccc(C[C@H]2NC[C@H](O)[C@H]2OC(=O)NCCCCCn2ccnc2)cc1` [V187636, (2R,3S,4S)-4-hydroxy-2-[(4-methoxyphenyl)methyl]pyrrolidin-3-yl N-[5-(imidazol-1-yl)pentyl]carbamate; trifluoroacetic acid], the IC50 in the test on ALK, with MYC, in the test on MCL-1 and with KRAS G12D was under 10 µM throughout.
Regarding `COc1ccc(C[C@H]2NC[C@H](O)[C@H]2OC(=O)NCCc2ncc[nH]2)cc1` [V187816, (2R,3S,4S)-4-hydroxy-2-[(4-methoxyphenyl)methyl]pyrrolidin-3-yl N-[2-(1H-imidazol-2-yl)ethyl]carbamate], the IC50 with ALK was under 10 µM; with CCND1, over 30 µM; in the test on MYC, 20 to 30 µM; with KRAS G12D it was over 30 µM.
As for `COc1ccc(C[C@H]2NC[C@H](O)[C@H]2OC(=O)NCCCN)cc1` [V187591], the IC50 in the test on ALK, in the test with CCND1, in the test with MYC, in the test with MCL-1 and in the test on KRAS G12D was under 10 µM in each case.
For `COc1ccc(C[C@H]2NC[C@H](O)[C@H]2OC(=O)NCCc2ccon2)cc1` [V187700, (2R,3S,4S)-4-hydroxy-2-[(4-methoxyphenyl)methyl]pyrrolidin-3-yl N-[2-(1,2-oxazol-3-yl)ethyl]carbamate; trifluoroacetic acid], the IC50 with ALK, in the test on CCND1, in the test with MYC, with MCL-1 and with KRAS G12D was under 10 µM each time.
Regarding `COc1ccc(C[C@H]2NC[C@H](O)[C@H]2OC(=O)NCCCCCO)cc1` [V187587, (2R,3S,4S)-4-hydroxy-2-[(4-methoxyphenyl)methyl]pyrrolidin-3-yl N-(5-hydroxypentyl)carbamate], the IC50 with ALK, in the test on CCND1, in the test with MYC, in the test on MCL-1 and with KRAS G12D was under 10 µM each time.
Take `COc1ccc(C[C@H]2NC[C@H](O)[C@H]2OC(=O)NCc2cocn2)cc1` [V187767, (2R,3S,4S)-4-hydroxy-2-[(4-methoxyphenyl)methyl]pyrrolidin-3-yl N-(1,3-oxazol-4-ylmethyl)carbamate]: the IC50 in the test with ALK, with CCND1, in the test on MYC, in the test on MCL-1 and in the test with KRAS G12D was under 10 µM each time.
For `COc1ccc(C[C@H]2NC[C@H](O)[C@H]2OC(=O)NCc2ncc[nH]2)cc1` [V187815, (2R,3S,4S)-4-hydroxy-2-[(4-methoxyphenyl)methyl]pyrrolidin-3-yl N-(1H-imidazol-2-ylmethyl)carbamate], the IC50 in the test with ALK was under 10 µM; with CCND1, 10 to 20 µM; in the test on MYC it was under 10 µM; in the test on KRAS G12D, 20 to 30 µM.
Consider `COc1ccc(C[C@H]2NC[C@H](O)[C@H]2OC(=O)NCCc2nc3ccccc3[nH]2)cc1` [V187820, (2R,3S,4S)-4-hydroxy-2-[(4-methoxyphenyl)methyl]pyrrolidin-3-yl N-[2-(1H-1,3-benzodiazol-2-yl)ethyl]carbamate], for which the IC50 with ALK was under 10 µM; with CCND1, 20 to 30 µM; in the test on MYC, 10 to 20 µM; in the test with KRAS G12D, over 30 µM.
Regarding `COc1ccc(C[C@@H]2NC[C@@H](O)[C@H]2OC(=O)NCCN(CCC(N)=O)Cc2c[nH]cn2)cc1` [V187539, (2S,3S,4R)-4-hydroxy-2-[(4-methoxyphenyl)methyl]pyrrolidin-3-yl N-{2-[(2-carbamoylethyl)(1H-imidazol-4-ylmethyl)amino]ethyl}carbamate; trifluoroacetic acid], the results for the IC50 in the test with ALK, in the test with MYC and in the test on KRAS G12D were under 10 µM, under 10 µM and 20 to 30 µM, respectively.
Turning to `COC1CCC(CC2NCC(O)C2OC(O)NCCOCC2CNNN2)CC1` (centres unmarked) [V187723, 4-[hydroxy({[2-(1,2,3-triazolidin-4-ylmethoxy)ethyl]amino})methoxy]-5-[(4-methoxycyclohexyl)methyl]pyrrolidin-3-ol; trifluoroacetic acid], the half-inhibitory concentration (IC50) is under 10 µM with ALK, 20 to 30 µM in the test with CCND1, 10 to 20 µM with MYC and over 30 µM in the test with KRAS G12D.
Take `COc1ccc(CC2NCC(O)C2OC(=O)NC2CC(N)C2)cc1` [V187682, (2R,3S,4S)-4-hydroxy-2-[(4-methoxyphenyl)methyl]pyrrolidin-3-yl N-[(1r,3r)-3-aminocyclobutyl]carbamate]: the values for the IC50 with ALK, in the test on MYC and with KRAS G12D were 10 to 20 µM, over 30 µM and over 30 µM, respectively.
As for `CCN(CC)CCOCCNC(=O)O[C@@H]1[C@@H](O)CN[C@@H]1Cc1ccc(OC)cc1` [V187625, (2R,3S,4S)-4-hydroxy-2-[(4-methoxyphenyl)methyl]pyrrolidin-3-yl N-{2-[2-(diethylamino)ethoxy]ethyl}carbamate; trifluoroacetic acid], the IC50 in the test on ALK, with MYC and with KRAS G12D was over 30 µM throughout.
As for `COc1ccc(C[C@H]2NC[C@H](O)[C@H]2OC(=O)NCC[C@H]2CN(CC3CC3)CCN2Cc2ccccc2)cc1` [V187344], the IC50 in the test on ALK, with MYC and in the test on KRAS G12D was over 30 µM each time.
Turning to `COc1ccc(CC2NCC(O)[C@H]2OC(=O)NCCN(Cc2ccccn2)Cc2ccccn2)cc1` (stereo in doubt) [V187537, (2S,3S,4R)-4-hydroxy-2-[(4-methoxyphenyl)methyl]pyrrolidin-3-yl N-{2-[bis(pyridin-2-ylmethyl)amino]ethyl}carbamate; trifluoroacetic acid], the IC50 is under 10 µM with ALK, under 10 µM in the test with MYC and 20 to 30 µM with KRAS G12D.
For the compound `COc1ccc(C[C@H]2NC[C@H](O)[C@H]2OC(=O)Nc2nsc(C)n2)cc1` [V187652, (2R,3S,4S)-4-hydroxy-2-[(4-methoxyphenyl)methyl]pyrrolidin-3-yl N-(5-methyl-1,2,4-thiadiazol-3-yl)carbamate; trifluoroacetic acid], the IC50 in the test with ALK, in the test on MYC and in the test with KRAS G12D was over 30 µM throughout.
As to `COc1ccc(C[C@H]2NC[C@H](O)[C@H]2OC(=O)NC[C@@H]2NC(=O)CNC2=O)cc1` [V187381, (2R,3S,4S)-4-hydroxy-2-[(4-methoxyphenyl)methyl]pyrrolidin-3-yl N-{[(2S)-3,6-dioxopiperazin-2-yl]methyl}carbamate], the IC50 in the test on ALK, in the test on MYC and with KRAS G12D was over 30 µM in each case.
Regarding `COc1ccc(C[C@H]2NC[C@H](O)[C@H]2OC(=O)NCCN2C[C@@H](O)[C@H](O)C2)cc1` [V187577, (2R,3S,4S)-4-hydroxy-2-[(4-methoxyphenyl)methyl]pyrrolidin-3-yl N-{2-[(3R,4R)-3,4-dihydroxypyrrolidin-1-yl]ethyl}carbamate], the IC50 in the test with ALK was under 10 µM; in the test on MYC it was over 30 µM; with KRAS G12D, 10 to 20 µM.
On to `COc1ccc(C[C@H]2NC[C@H](O)[C@H]2OC(=O)NCCc2ncc(C)[nH]2)cc1` [V187818, (2R,3S,4S)-4-hydroxy-2-[(4-methoxyphenyl)methyl]pyrrolidin-3-yl N-[2-(4-methyl-3H-imidazol-2-yl)ethyl]carbamate], for which the half-maximal inhibitory concentration (IC50) in the test on ALK was under 10 µM; with CCND1, over 30 µM; with MYC it was 20 to 30 µM; in the test on KRAS G12D, over 30 µM.
For `COCCN(CCNC(=O)O[C@@H]1[C@H](O)CN[C@H]1Cc1ccc(OC)cc1)CCOC` [V187538, (2S,3S,4R)-4-hydroxy-2-[(4-methoxyphenyl)methyl]pyrrolidin-3-yl N-{2-[bis(2-methoxyethyl)amino]ethyl}carbamate; trifluoroacetic acid], the IC50 with ALK was under 10 µM; in the test with MYC it was 10 to 20 µM; with KRAS G12D, over 30 µM.
On to `COc1ccc(C[C@H]2NC[C@H](O)[C@H]2OC(=O)NCCN(C(C)C)C(C)C)cc1` [V187436, (2R,3S,4S)-4-hydroxy-2-[(4-methoxyphenyl)methyl]pyrrolidin-3-yl N-[2-(diisopropylamino)ethyl]carbamate], for which the 50% inhibitory concentration (IC50) in the test with ALK, in the test with MYC and in the test with KRAS G12D was over 30 µM in each case.
Take `COc1ccc(C[C@H]2NC[C@H](O)[C@H]2OC(=O)NCCCCO)cc1` [V187586, (2R,3S,4S)-4-hydroxy-2-[(4-methoxyphenyl)methyl]pyrrolidin-3-yl N-(4-hydroxybutyl)carbamate]: the IC50 with ALK, in the test on CCND1, in the test with MCL-1 and with KRAS G12D was under 10 µM each time.
